Measurements: ChEMBL document CHEMBL4837265 (ACS Med Chem Lett, 2021)
Activity calls are given as the source filed them. No cut-off for these calls is given here.

Tests used:
Assay type in all cases: cell-based
[1] = target: T1, Glucocorticoid receptor (Rattus norvegicus, UniProt P06536); test: Agonist activity at glucocorticoid receptor in rat INS-1 832/13 cells transfected with CCL2-promoter luciferase plasmid construct assessed as reduction in IL-1 beta induced inflammation by luciferase reporter gene assay
T1 sequence (P06536 whole entry): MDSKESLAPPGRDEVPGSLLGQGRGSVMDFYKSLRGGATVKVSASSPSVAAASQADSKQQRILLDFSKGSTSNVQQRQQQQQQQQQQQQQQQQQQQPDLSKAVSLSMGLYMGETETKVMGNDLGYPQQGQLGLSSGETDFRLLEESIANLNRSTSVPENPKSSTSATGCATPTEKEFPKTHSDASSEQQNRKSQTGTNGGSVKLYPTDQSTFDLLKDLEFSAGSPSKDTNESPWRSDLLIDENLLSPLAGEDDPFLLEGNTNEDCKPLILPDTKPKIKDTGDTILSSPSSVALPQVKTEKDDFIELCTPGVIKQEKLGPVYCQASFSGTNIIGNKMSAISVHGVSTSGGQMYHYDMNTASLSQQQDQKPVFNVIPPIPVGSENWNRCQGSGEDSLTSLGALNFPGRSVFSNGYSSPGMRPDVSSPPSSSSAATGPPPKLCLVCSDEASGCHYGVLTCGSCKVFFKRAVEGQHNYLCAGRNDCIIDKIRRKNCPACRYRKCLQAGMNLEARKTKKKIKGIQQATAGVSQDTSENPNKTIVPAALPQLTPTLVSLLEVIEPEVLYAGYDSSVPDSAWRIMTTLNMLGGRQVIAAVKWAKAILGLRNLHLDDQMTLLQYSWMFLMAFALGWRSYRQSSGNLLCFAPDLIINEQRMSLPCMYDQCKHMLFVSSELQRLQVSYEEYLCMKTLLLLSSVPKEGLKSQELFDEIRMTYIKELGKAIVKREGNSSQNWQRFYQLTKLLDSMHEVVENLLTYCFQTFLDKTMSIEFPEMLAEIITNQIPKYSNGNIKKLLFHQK

[2] = target: T1, Glucocorticoid receptor; test: Agonist activity at glucocorticoid receptor in rat INS-1 832/13 cells transfected with 3XGRE-promoter luciferase plasmid construct assessed as induction of receptor transactivation by luciferase reporter gene assay
[3] = target: T2, Glucocorticoid receptor (Rattus norvegicus) (UniProt P06536); test: Agonist activity at glucocorticoid receptor in rat INS-1 832/13 cells assessed as inhibition of glucose-stimulated insulin secretion at 100 nM incubated for 18 hrs by ELISA
T2 sequence (whole entry): T1 sequence (P06536 whole entry)

IC50 [1]	EC50 [2]	inhibition [3]	inhibition ([3]; filed as agonist)	SMILES
1260 nM	10000 nM	–	–	COc1ccc(-n2ncc3c2C=C2CCC[C@H]([C@@H](O)c4ccccc4)[C@@]2(C)C3)cc1
501 nM	10000 nM	–	–	COc1ccc(-n2ncc3c2C=C2CCC[C@H]([C@@H](O)c4ccsc4)[C@@]2(C)C3)cc1
0.2 nM	1580 nM	–	–	Cc1ccc(-n2ncc3c2C=C2CCC[C@H]([C@H](C)O)[C@@]2(C)C3)cc1
0.251 nM	794 nM	–	–	CC(C)(C)[C@H](O)[C@H]1CCCC2=Cc3c(cnn3-c3ccc(F)cc3)C[C@@]21C
39.8 nM	63.1 nM	inactive	–	CC(C)(O)[C@H]1CCCC2=Cc3c(cnn3-c3ccc(F)cc3)C[C@@]21C
5.01 nM	15.8 nM	–	–	C[C@]12Cc3cnn(-c4ccc(F)cc4)c3C=C1CCC[C@@H]2[C@](C)(O)c1ccc(F)cc1
6.31 nM	63.1 nM	inactive	–	C[C@H](O)[C@H]1CCCC2=Cc3c(cnn3-c3ccc(F)cc3)C[C@@]21C
398 nM	10000 nM	–	–	Cc1ccc(-n2ncc3c2C=C2CCC[C@H]([C@@H](O)c4ccccc4)[C@@]2(C)C3)cc1
31.6 nM	1260 nM	–	–	Cc1ccc(-n2ncc3c2C=C2CCC[C@H](C(C)(O)c4ccccc4)[C@@]2(C)C3)cc1 (single isomer, unassigned)
0.158 nM	251 nM	–	–	COc1ccc(-n2ncc3c2C=C2CCC[C@H]([C@H](C)O)[C@@]2(C)C3)cc1
2510 nM	79.4 nM	–	–	COc1ccc(-n2ncc3c2C=C2CCC[C@H](C(C)(C)O)[C@@]2(C)C3)cc1
1580 nM	2510 nM	–	–	C[C@]12Cc3cnn(-c4ccc(F)cc4)c3C=C1CCC[C@@H]2[C@@H](O)CC#N
63.1 nM	0.398 nM	–	–	Cc1ccc(-n2ncc3c2C=C2CCC[C@H](C(C)(C)O)[C@@]2(C)C3)cc1
158 nM	100000 nM	–	–	COc1cc([C@H](O)[C@H]2CCCC3=Cc4c(cnn4-c4ccc(C)cc4)C[C@@]32C)cc(F)c1F
39.8 nM	10000 nM	–	–	Cc1ccc(-n2ncc3c2C=C2CCC[C@H]([C@@H](O)c4ccsc4)[C@@]2(C)C3)cc1
7.94 nM	3.98 nM	–	Active	C[C@]12Cc3cnn(-c4ccc(F)cc4)c3C=C1CCC[C@@H]2[C@](C)(O)c1ccccc1
251 nM	126 nM	–	–	COc1ccc(-n2ncc3c2C=C2CCC[C@H](C(C)(O)c4ccc(F)cc4)[C@@]2(C)C3)cc1 (single isomer, unassigned)
5.01 nM	126 nM	–	–	C[C@]12Cc3cnn(-c4ccc(F)cc4)c3C=C1CCC[C@@H]2[C@@H](O)c1ccsc1
100 nM	1580 nM	–	–	Cc1ccc(-n2ncc3c2C=C2CCC[C@H](C(C)(O)c4ccsc4)[C@@]2(C)C3)cc1 (single isomer, unassigned)
631 nM	316 nM	–	–	Cc1ccc(-n2ncc3c2C=C2CCC[C@H](C(C)(O)c4ccc(F)cc4)[C@@]2(C)C3)cc1 (single isomer, unassigned)
251 nM	31600 nM	–	–	Cc1ccc(-n2ncc3c2C=C2CCC[C@H]([C@@H](O)c4ccc(F)cc4)[C@@]2(C)C3)cc1
79.4 nM	15800 nM	–	–	COc1ccc(-n2ncc3c2C=C2CCC[C@H]([C@@H](O)c4ccc(F)cc4)[C@@]2(C)C3)cc1
501 nM	5010 nM	–	–	COc1ccc(-n2ncc3c2C=C2CCC[C@H](C(C)(O)c4ccccc4)[C@@]2(C)C3)cc1 (single isomer, unassigned)
1260 nM	10000 nM	–	–	COc1ccc(-n2ncc3c2C=C2CCC[C@H](C(C)(O)c4cc(F)c(F)c(OC)c4)[C@@]2(C)C3)cc1 (single isomer, unassigned)
15.8 nM	63.1 nM	–	–	COc1cc([C@H](O)[C@H]2CCCC3=Cc4c(cnn4-c4ccc(F)cc4)C[C@@]32C)cc(F)c1F
39.8 nM	100 nM	inactive	–	C[C@]12Cc3cnn(-c4ccc(F)cc4)c3C=C1CCC[C@@H]2[C@@H](O)c1ccccc1
1580 nM	10000 nM	–	–	COc1ccc(-n2ncc3c2C=C2CCC[C@H](C(C)(O)c4ccsc4)[C@@]2(C)C3)cc1 (single isomer, unassigned)
2 nM	6.31 nM	–	–	COc1cc([C@@](C)(O)[C@H]2CCCC3=Cc4c(cnn4-c4ccc(F)cc4)C[C@@]32C)cc(F)c1F
